ChEMBL document CHEMBL1144852, “Optimization of a dihydropyrrolopyrazole series of transforming growth factor-beta type I receptor kinase domain inhibitors: discovery of an orally bioavailable transforming growth factor-beta receptor type I inhibitor as antitumor agent” (J Med Chem, 2008)
Values belong to the compound of their own block, whether it stands above or below them.

Columns and labels:
[1] = target: TGF-beta receptor type-1 (Homo sapiens, UniProt P36897, T204D); experiment: Inhibition of TGFbeta type receptor 1 ALK5 (T204D) expressed in Sf9 cells
[2] = Antiproliferative activity against mink Mv1Lu-p3TP-Lux cells by luciferase reporter assay; format: functional, cell-based, Neovison vison; conditions: Neogale vison
[3] = test system: NIH3T3; experiment: Antiproliferative activity against mouse NIH3T3 cells by [3H]thymidine assay; format: functional, cell-based
[4] = AUC in rat at 10 mg/kg, po; format: ADME, organism-based; parameters: dose 10 mg/kg, route oral; conditions: plasma
[5] = test system: Liver microsomes; experiment: Metabolic stability in human liver microsomes; format: ADME, Microsome; also: time not given here
[6] = Metabolic stability in rat microsomes; format: ADME, Microsome; also: time not given here
[7] = test system: Caco-2; experiment: Permeability from apical to basolateral side of human Caco-2 cell membrane; format: ADME, cell-based
[8] = test system: Mus musculus; experiment: Inhibition of TGFbeta type receptor 1 in human Calu6 cells xenografted mouse at 50 mg/kg, po by single point IVTI assay; format: functional, Calu-6; parameters: scale not given: the % may be the effect or the level left
[9] = test system: Mus musculus; experiment: Inhibition of TGFbeta type receptor 1 in orally dosed human Calu6 cells xenografted mouse by IVTI […] assay; format: functional, organism-based; conditions: Calu-6
[10] = target: Ribosomal protein S6 kinase alpha-5 (Homo sapiens) (UniProt O75582); experiment: Inhibition of MSK1 at 20 uM
[11] = target: Cyclin-dependent kinase 2 (Homo sapiens) (UniProt P24941); experiment: Inhibition of CDK2 at 20 uM
[12] = target: 5'-AMP-activated protein kinase subunit beta-1 (Homo sapiens) (UniProt Q9Y478); experiment: Inhibition of AMPK at 20 uM
[13] = target: Tyrosine-protein kinase Blk (Homo sapiens) (UniProt P51451); experiment: Inhibition of Blk at 20 uM
[14] = target: Fibroblast growth factor receptor 3 (Homo sapiens) (UniProt P22607); experiment: Inhibition of FGFR3 at 20 uM
[15] = target: Tyrosine-protein kinase Lck (Homo sapiens) (UniProt P06239); experiment: Inhibition of Lck at 20 uM
[16] = target: Mitogen-activated protein kinase 14 (Homo sapiens) (UniProt Q16539); experiment: Inhibition of Sapk2-alpha at 20 uM
[17] = target: Dual specificity mitogen-activated protein kinase kinase 6 (Homo sapiens) (UniProt P52564); experiment: Inhibition of MKK6 at 20 uM
[18] = target: Tyrosine-protein kinase Fyn (Homo sapiens) (UniProt P06241); experiment: Inhibition of Fyn at 20 uM
[19] = target: Mitogen-activated protein kinase 10 (Homo sapiens) (UniProt P53779); experiment: Inhibition of JNK3 at 20 uM
[20] = target: Mitogen-activated protein kinase 11 (Homo sapiens) (UniProt Q15759); experiment: Inhibition of Sapk2-beta at 20 uM
[21] = target: Mitogen-activated protein kinase 1 (Homo sapiens) (UniProt P28482); experiment: Inhibition of MAPK1 at 20 uM
[22] = target: Proto-oncogene tyrosine-protein kinase Src (Homo sapiens) (UniProt P12931); experiment: Inhibition of cSRC at 20 uM
[23] = target: Glycogen synthase kinase-3 beta (Homo sapiens) (UniProt P49841); experiment: Inhibition of GSK3-beta at 20 uM
[24] = target: Mitogen-activated protein kinase 9 (Homo sapiens) (UniProt P45984); experiment: Inhibition of JNK2-alpha-2 at 20 uM
[25] = target: RAF proto-oncogene serine/threonine-protein kinase (Homo sapiens) (UniProt P04049); experiment: Inhibition of cRaf at 20 uM
[26] = target: Mitogen-activated protein kinase 12 (Homo sapiens) (UniProt P53778); experiment: Inhibition of Sapk3 at 20 uM
[27] = target: MAP kinase-activated protein kinase 5 (Homo sapiens) (UniProt Q8IW41); experiment: Inhibition of PRAK at 20 uM
[28] = target: Ribosomal protein S6 kinase beta-1 (Homo sapiens) (UniProt P23443); experiment: Inhibition of p70S6K at 20 uM
[29] = target: Cyclin-dependent kinase 1 (Homo sapiens) (UniProt P06493); experiment: Inhibition of CDK1 at 20 uM
[30] = target: Serine/threonine-protein kinase N2 (Homo sapiens) (UniProt Q16513); experiment: Inhibition of PRK2 at 20 uM
[31] = target: Protein kinase C delta type (Homo sapiens) (UniProt Q05655); experiment: Inhibition of PKCdelta at 20 uM
[32] = Inhibition of JNK1-alpha at 20 uM
[33] = target: Serine/threonine-protein kinase Sgk1 (Homo sapiens) (UniProt O00141); experiment: Inhibition of SGK at 20 uM
[34] = target: Mitogen-activated protein kinase 13 (Homo sapiens) (UniProt O15264); experiment: Inhibition of Sapk4 at 20 uM
[35] = target: Dual specificity mitogen-activated protein kinase kinase 1 (Homo sapiens) (UniProt Q02750); experiment: Inhibition of Mek1 at 20 uM
[36] = target: Serine/threonine-protein kinase Chk1 (Homo sapiens) (UniProt O14757); experiment: Inhibition of Chk1 at 20 uM
[37] = target: Dual specificity mitogen-activated protein kinase kinase 7 (Homo sapiens) (UniProt O14733); experiment: Inhibition of MKK7-beta at 20 uM
[38] = target: Serine/threonine-protein kinase Chk2 (Homo sapiens) (UniProt O96017); experiment: Inhibition of Chk2 at 20 uM
[39] = target: Rho-associated protein kinase 2 (Homo sapiens) (UniProt O75116); experiment: Inhibition of Rock2 at 20 uM
[40] = target: Protein kinase C beta type (Homo sapiens) (UniProt P05771); experiment: Inhibition of PKC-beta-2 at 20 uM
[41] = target: Vascular endothelial growth factor receptor 2 (Homo sapiens) (UniProt P35968); experiment: Inhibition of KDR at 20 uM
[42] = target: Tyrosine-protein kinase ZAP-70 (Homo sapiens) (UniProt P43403); experiment: Inhibition of ZAP70 at 20 uM
[43] = target: Dual specificity mitogen-activated protein kinase kinase 4 (Homo sapiens) (UniProt P45985); experiment: Inhibition of MKK4 at 20 uM
[44] = target: MAP kinase-activated protein kinase 2 (Homo sapiens) (UniProt P49137); experiment: Inhibition of MAPKAPK2 at 20 uM
[45] = Inhibition of PKA at 20 uM
[46] = target: RAC-alpha serine/threonine-protein kinase (Homo sapiens) (UniProt P31749); experiment: Inhibition of PKBalpha at 20 uM
[47] = Inhibition of CaMK2 at 20 uM
[48] = Inhibition of CK2 at 20 uM
[49] = target: Protein kinase C alpha type (Homo sapiens) (UniProt P17252); experiment: Inhibition of PKCalpha at 20 uM

Sequence of Tyrosine-protein kinase Lck (Homo sapiens) (P06239 2-509 limits assumed): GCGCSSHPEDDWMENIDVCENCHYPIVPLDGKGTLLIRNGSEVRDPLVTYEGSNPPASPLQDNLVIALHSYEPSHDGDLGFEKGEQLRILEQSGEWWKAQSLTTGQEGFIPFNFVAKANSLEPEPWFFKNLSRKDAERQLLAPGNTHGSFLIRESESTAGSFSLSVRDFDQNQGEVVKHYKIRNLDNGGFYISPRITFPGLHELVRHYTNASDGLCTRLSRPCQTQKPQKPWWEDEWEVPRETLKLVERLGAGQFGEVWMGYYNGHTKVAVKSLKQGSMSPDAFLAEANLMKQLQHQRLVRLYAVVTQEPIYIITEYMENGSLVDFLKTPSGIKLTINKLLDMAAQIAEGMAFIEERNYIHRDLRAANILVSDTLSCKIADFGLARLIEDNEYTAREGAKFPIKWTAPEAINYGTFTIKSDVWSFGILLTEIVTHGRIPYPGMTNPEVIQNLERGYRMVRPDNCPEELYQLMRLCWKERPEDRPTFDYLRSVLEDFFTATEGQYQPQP
Sequence of Ribosomal protein S6 kinase alpha-5 (Homo sapiens) (O75582 whole entry, looked up): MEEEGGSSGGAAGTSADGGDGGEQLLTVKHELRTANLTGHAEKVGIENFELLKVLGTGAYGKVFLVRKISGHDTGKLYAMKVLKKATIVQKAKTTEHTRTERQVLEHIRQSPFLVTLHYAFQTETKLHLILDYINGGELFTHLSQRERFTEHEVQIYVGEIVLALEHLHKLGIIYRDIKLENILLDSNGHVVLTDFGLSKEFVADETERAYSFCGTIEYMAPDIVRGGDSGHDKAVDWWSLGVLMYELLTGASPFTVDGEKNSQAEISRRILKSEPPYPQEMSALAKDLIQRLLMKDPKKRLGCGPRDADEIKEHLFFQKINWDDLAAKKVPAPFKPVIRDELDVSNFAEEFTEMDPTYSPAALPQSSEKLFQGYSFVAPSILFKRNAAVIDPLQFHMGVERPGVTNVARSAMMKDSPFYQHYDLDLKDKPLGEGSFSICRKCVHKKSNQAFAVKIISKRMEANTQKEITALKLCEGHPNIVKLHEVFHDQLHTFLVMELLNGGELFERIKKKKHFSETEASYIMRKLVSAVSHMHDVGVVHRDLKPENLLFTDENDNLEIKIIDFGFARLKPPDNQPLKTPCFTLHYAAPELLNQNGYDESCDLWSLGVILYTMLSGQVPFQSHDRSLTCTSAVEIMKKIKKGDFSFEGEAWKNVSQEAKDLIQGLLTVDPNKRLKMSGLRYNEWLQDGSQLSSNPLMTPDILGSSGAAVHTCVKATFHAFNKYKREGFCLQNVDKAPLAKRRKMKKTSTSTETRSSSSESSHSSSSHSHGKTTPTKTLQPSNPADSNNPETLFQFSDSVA
Sequence of Glycogen synthase kinase-3 beta (Homo sapiens) (P49841 whole entry, looked up): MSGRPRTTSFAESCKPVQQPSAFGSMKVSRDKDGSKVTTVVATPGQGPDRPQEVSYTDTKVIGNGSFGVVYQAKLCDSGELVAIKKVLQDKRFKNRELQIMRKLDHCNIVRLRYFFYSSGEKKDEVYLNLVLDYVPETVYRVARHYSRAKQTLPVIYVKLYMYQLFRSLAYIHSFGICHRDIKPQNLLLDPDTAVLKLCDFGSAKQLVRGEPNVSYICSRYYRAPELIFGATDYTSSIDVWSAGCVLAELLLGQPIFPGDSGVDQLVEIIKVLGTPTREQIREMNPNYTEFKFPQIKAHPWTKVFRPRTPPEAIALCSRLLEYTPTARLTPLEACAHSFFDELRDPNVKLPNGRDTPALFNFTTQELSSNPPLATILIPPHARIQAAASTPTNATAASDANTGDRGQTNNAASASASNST
Sequence of Cyclin-dependent kinase 1 (Homo sapiens) (P06493 whole entry, looked up): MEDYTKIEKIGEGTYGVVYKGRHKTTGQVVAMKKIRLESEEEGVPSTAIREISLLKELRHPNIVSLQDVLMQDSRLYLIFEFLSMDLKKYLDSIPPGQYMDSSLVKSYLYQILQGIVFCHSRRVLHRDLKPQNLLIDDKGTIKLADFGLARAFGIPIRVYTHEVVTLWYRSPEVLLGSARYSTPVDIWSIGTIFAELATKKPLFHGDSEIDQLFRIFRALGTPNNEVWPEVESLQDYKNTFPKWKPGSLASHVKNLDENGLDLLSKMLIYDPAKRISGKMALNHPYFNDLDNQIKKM
Sequence of Ribosomal protein S6 kinase beta-1 (Homo sapiens) (P23443 whole entry, looked up): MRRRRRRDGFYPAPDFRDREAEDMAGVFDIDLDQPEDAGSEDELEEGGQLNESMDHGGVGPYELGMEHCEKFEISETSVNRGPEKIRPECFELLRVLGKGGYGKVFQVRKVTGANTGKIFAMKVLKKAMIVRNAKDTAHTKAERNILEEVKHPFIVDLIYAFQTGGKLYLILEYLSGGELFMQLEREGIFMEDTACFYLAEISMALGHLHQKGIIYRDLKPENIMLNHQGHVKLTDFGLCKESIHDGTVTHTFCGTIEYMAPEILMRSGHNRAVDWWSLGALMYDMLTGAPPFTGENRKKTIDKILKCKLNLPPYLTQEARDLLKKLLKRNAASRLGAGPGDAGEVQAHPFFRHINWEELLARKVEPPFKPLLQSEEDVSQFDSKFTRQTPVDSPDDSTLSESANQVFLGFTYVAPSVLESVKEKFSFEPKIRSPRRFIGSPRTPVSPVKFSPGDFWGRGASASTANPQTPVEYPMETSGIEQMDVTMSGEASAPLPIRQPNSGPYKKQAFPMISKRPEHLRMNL
Sequence of Serine/threonine-protein kinase Chk1 (Homo sapiens) (O14757 whole entry): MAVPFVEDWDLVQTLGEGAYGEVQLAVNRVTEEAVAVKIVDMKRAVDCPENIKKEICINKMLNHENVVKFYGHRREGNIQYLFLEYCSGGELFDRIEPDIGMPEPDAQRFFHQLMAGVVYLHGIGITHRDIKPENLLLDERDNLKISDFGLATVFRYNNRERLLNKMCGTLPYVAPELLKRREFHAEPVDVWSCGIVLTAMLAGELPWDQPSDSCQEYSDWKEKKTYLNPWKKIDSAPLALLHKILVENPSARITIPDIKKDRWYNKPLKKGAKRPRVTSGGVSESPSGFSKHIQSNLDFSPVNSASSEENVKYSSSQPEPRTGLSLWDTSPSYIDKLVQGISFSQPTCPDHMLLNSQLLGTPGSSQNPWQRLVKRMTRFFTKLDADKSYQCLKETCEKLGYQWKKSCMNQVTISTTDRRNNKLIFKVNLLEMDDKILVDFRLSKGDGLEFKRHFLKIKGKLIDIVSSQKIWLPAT
Sequence of Mitogen-activated protein kinase 10 (Homo sapiens) (P53779 whole entry): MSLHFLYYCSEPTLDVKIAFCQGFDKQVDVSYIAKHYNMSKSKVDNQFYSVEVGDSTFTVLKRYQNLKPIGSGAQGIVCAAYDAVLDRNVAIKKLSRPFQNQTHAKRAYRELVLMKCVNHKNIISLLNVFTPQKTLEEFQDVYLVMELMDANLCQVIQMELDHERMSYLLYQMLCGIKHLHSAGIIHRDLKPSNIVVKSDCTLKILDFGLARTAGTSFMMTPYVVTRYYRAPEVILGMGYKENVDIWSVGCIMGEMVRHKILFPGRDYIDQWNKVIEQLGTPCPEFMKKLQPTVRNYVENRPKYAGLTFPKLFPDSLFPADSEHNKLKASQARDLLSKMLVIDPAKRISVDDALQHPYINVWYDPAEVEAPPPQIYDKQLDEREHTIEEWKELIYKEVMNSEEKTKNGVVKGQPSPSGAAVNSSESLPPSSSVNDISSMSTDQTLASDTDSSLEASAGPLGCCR
Sequence of Fibroblast growth factor receptor 3 (Homo sapiens) (P22607 23-806 limits assumed): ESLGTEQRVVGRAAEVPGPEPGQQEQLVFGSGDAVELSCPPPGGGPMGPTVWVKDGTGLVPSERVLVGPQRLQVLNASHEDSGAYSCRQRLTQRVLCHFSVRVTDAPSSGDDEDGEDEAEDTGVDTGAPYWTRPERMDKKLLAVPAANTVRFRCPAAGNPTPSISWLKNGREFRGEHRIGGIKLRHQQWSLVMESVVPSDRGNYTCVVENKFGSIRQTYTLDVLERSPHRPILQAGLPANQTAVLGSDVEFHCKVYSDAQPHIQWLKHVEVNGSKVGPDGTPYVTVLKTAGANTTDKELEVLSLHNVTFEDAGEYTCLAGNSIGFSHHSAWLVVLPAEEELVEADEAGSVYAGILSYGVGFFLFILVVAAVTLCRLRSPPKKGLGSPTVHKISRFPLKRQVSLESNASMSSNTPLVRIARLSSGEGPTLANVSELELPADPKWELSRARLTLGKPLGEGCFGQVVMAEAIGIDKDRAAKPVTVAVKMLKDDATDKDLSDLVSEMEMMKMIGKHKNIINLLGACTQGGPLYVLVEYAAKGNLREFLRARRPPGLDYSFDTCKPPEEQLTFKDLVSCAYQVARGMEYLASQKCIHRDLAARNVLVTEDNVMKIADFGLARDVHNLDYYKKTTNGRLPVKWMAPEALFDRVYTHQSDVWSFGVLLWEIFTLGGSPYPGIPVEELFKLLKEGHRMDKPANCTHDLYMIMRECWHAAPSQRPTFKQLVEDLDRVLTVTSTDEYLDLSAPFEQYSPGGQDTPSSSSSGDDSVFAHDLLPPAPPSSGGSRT
Sequence of Mitogen-activated protein kinase 11 (Homo sapiens) (Q15759 whole entry): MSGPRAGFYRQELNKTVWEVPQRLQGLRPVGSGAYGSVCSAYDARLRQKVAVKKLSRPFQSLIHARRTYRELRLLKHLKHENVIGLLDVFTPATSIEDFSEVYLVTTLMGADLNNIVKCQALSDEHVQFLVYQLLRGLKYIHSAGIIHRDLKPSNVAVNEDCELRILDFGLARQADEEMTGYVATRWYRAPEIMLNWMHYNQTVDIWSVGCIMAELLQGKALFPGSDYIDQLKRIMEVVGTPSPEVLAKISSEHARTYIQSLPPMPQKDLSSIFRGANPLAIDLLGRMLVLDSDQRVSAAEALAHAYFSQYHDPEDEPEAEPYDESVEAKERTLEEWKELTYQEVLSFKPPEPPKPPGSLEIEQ
Sequence of Dual specificity mitogen-activated protein kinase kinase 6 (Homo sapiens) (P52564 whole entry): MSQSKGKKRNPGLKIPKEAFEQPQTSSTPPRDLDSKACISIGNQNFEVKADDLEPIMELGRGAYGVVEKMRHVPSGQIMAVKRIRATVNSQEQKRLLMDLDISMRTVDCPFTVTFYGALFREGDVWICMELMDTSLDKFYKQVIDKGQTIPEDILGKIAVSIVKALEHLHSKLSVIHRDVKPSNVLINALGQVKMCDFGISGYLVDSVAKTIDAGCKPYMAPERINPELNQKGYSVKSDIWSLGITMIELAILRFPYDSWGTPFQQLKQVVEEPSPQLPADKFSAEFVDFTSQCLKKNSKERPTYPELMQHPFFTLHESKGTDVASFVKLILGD

IC50 [1]: 0.089 µM
SMILES: Cc1cccc(-c2nn3c(c2-c2ccnc4ccc(Br)cc24)CCC3)n1
IC50 [2]: 0.055 µM | IC50 [3]: 0.338 µM

IC50 [1]: 0.928 µM
SMILES: Cc1cccc(-c2nn3c(c2-c2ccnc4c(F)cccc24)CCC3)n1
IC50 [2]: 0.951 µM | IC50 [3]: 1.03 µM

SMILES: CN1CCN(C(=O)COc2ccc3c(-c4c(-c5ccccn5)nn5c4CCC5)ccnc3c2)CC1
IC50 [1]: 0.049 µM | IC50 [2]: 0.26 µM | IC50 [3]: 0.73 µM

AUC [4]: 398 ng·h/mL
SMILES: CN(C)CC(=O)Nc1ccc2c(-c3c(-c4ccccn4)nn4c3CCC4)ccnc2c1

IC50 [1]: 1.1 µM
SMILES: NC(=O)c1ccc(Oc2ccc3c(-c4c(-c5ccccn5)nn5c4CCC5)ccnc3c2)cc1

Stability [5]: 22% | Stability [6]: 98% | permeability [7]: 76%
SMILES: c1ccc(-c2n[nH]cc2-c2ccnc3ccccc23)nc1
IC50 [3]: 0.081 µM

IC50 [1]: 3.81 µM
SMILES: COc1cc(OC)c2nccc(-c3c(-c4cccc(C)n4)nn4c3CCC4)c2c1
IC50 [2]: 7.2 µM | IC50 [3]: > 20 µM

IC50 [1]: 0.16 µM
SMILES: Oc1ccc2c(-c3c(-c4ccccn4)nn4c3CCC4)ccnc2c1
IC50 [2]: 0.2 µM | IC50 [3]: 0.42 µM

IC50 [1]: 1.1 µM
SMILES: CN(C)C(=O)c1ccc(Oc2ccc3c(-c4c(-c5ccccn5)nn5c4CCC5)ccnc3c2)cc1
IC50 [2]: 15 µM | IC50 [3]: 5.1 µM

IC50 [1]: 1.2 µM
SMILES: N#Cc1ccc(Oc2ccc3c(-c4c(-c5ccccn5)nn5c4CCC5)ccnc3c2)cc1

IC50 [1]: 4.8 µM
SMILES: O=C(O)c1ccc(Oc2ccc3c(-c4c(-c5ccccn5)nn5c4CCC5)ccnc3c2)cc1
IC50 [2]: > 20 µM | IC50 [3]: > 20 µM

IC50 [1]: 19.8 µM
SMILES: Clc1cc(-c2c(-c3ccccn3)nn3c2CCC3)c2ccccc2n1
IC50 [2]: > 20 µM | IC50 [3]: > 20 µM

Stability [5]: 29% | Stability [6]: 57% | EC50 [9]: 0.343 µM | permeability [7]: 27% | IC50 [1]: 0.085 µM
SMILES: CCN(C)CCOc1ccc2c(-c3c(-c4ccccn4)nn4c3CCC4)ccnc2c1
Activity [8]: 70% | IC50 [2]: 0.061 µM | IC50 [3]: 0.072 µM

IC50 [1]: 0.193 µM
SMILES: Cc1cccc(-c2nn3c(c2-c2ccnc4ccc(C(=O)NCCN(C)C)cc24)CCC3)n1
IC50 [2]: 0.468 µM | IC50 [3]: 2.27 µM

Stability [5]: 55% | Stability [6]: 97% | permeability [7]: 42% | IC50 [1]: 0.13 µM
SMILES: c1ccc(-c2nn3c(c2-c2ccnc4cc(OCC5CCCO5)ccc24)CCC3)nc1 (stereo unspecified)
IC50 [2]: 0.08 µM | IC50 [3]: 0.25 µM

IC50 [1]: > 20 µM
SMILES: COc1cc(-c2c(-c3ccccn3)nn3c2CCC3)c2ccccc2n1

SMILES: CN(C)CCOc1ccc2c(-c3c(-c4ccccn4)nn4c3CCC4)ccnc2c1
inhibition [10]: < 50% | inhibition [11]: < 50% | inhibition [12]: < 50% | inhibition [13]: < 50% | inhibition [14]: < 50% | Stability [6]: 60% | Activity [8]: 59% | EC50 [9]: 0.31 µM | permeability [7]: 28% | IC50 [3]: 0.098 µM | inhibition [15]: 81% | inhibition [16]: 87% | inhibition [17]: 62% | inhibition [18]: 18% | inhibition [19]: 51% | inhibition [20]: 29% | inhibition [21]: 30% | inhibition [22]: < 50% | inhibition [23]: < 50% | inhibition [24]: < 50% | inhibition [25]: < 50% | inhibition [26]: < 50% | inhibition [27]: < 50% | inhibition [28]: < 50% | inhibition [29]: < 50% | inhibition [30]: < 50% | inhibition [31]: < 50% | inhibition [32]: < 50% | inhibition [33]: < 50% | inhibition [34]: < 50% | inhibition [35]: < 50% | inhibition [36]: < 50% | inhibition [37]: < 50% | inhibition [38]: < 50% | inhibition [39]: < 50% | inhibition [40]: < 50% | inhibition [41]: < 50% | inhibition [42]: < 50% | inhibition [43]: < 50% | inhibition [44]: < 50% | inhibition [45]: < 50% | inhibition [46]: < 50% | inhibition [47]: < 50% | inhibition [48]: < 50% | inhibition [49]: < 50%

IC50 [1]: 0.526 µM
SMILES: COC(=O)c1ccc2nccc(-c3c(-c4cccc(C)n4)nn4c3CCC4)c2c1
IC50 [2]: 0.403 µM

SMILES: CN1CCN(CCOc2ccc3c(-c4c(-c5ccccn5)nn5c4CCC5)ccnc3c2)CC1
Activity [8]: 73% | EC50 [9]: 0.919 µM | IC50 [1]: 0.1 µM | IC50 [2]: 0.038 µM | IC50 [3]: 0.054 µM

SMILES: CN1CCN(CCCOc2ccc3c(-c4c(-c5ccccn5)nn5c4CCC5)ccnc3c2)CC1
Stability [5]: 17% | Stability [6]: 46% | Activity [8]: 70% | EC50 [9]: 1.1 µM | permeability [7]: 13% | IC50 [1]: 0.074 µM | IC50 [2]: 0.044 µM | IC50 [3]: 0.092 µM

IC50 [1]: 0.047 µM
SMILES: CN(C)CCCCCOc1ccc2c(-c3c(-c4ccccn4)nn4c3CCC4)ccnc2c1
IC50 [2]: 0.024 µM | IC50 [3]: 0.051 µM

IC50 [1]: 0.141 µM
SMILES: Cc1cccc(-c2nn3c(c2-c2ccnc4ccc(OC(F)(F)F)cc24)CCC3)n1
IC50 [2]: 0.201 µM | IC50 [3]: 0.254 µM

SMILES: CN1CCCC1CCCOc1ccc2c(-c3c(-c4ccccn4)nn4c3CCC4)ccnc2c1 (stereo unspecified)
Activity [8]: 75% | EC50 [9]: 0.377 µM | IC50 [1]: 0.072 µM | IC50 [2]: 0.017 µM | IC50 [3]: 0.02 µM

IC50 [1]: > 20 µM
SMILES: CCSc1cc(-c2c(-c3ccccn3)nn3c2CCC3)c2ccccc2n1
IC50 [2]: > 20 µM

IC50 [1]: > 20 µM
SMILES: c1ccc(-c2nn3c(c2-c2cc(N4CCCC4)nc4ccccc24)CCC3)nc1
IC50 [2]: > 20 µM

SMILES: CN(C)Cc1ccc(Oc2ccc3c(-c4c(-c5ccccn5)nn5c4CCC5)ccnc3c2)cc1
IC50 [1]: 0.75 µM

Stability [5]: 99% | Stability [6]: 99% | permeability [7]: 54% | IC50 [1]: 0.033 µM
SMILES: ClCCOc1ccc2c(-c3c(-c4ccccn4)nn4c3CCC4)ccnc2c1
IC50 [2]: 0.066 µM | IC50 [3]: 0.097 µM
